{"source": "patent US6015878A", "about": "“Antitumor agents isolated from intestinal mucosa, a method for their isolation and their application” (Alexandrov, Christo Alexandrov, priority 1995, dated 2000)", "assay_type_in_all_cases": "in vivo", "key": {"intestines [1]": {"test_system": "intestines", "test": "DNA concentration in intestines of treated mice (morphogenic effect)", "settings": "7 hours after treatment of mice, in comparison with control animals not treated with IEGs", "description": "(§1) Laboratory experiments were carried out to accomplish the third object concerning the effect of preparations on biosynthetic processes which was assessed by the incorporation of H^3 -thymidine (DNA-synthesis) and C^14 -uridine (RNA synthesis) in various regions of the intestines of the mice tested. The preparation's morphogenic effect was assessed by the enterocytic cellularity and DNA concentration in the same regions.\n(§2) Each fraction obtained in purifying IEG (see Object 1) was tested on mice. 3 mg of the peptide content of the fraction was administered intraperitoneally simultaneously with the testing reagent (isotope); the animals were then killed and investigated 7 hours afterwards. […] Both IEGs have a suppressive effect on DNA synthesis especially in the lower regions of intestines: IEG1 by 45%, IEG2 --by 48%. […] In this way it switches on the chain of molecular mechanisms by which it acts on the smooth muscle motility."}, "intestines [2]": {"test_system": "intestines", "test": "Incorporation of C^14-uridine (RNA synthesis) in intestines of treated mice", "settings": "7 hours after treatment of mice, in comparison with control animals not treated with IEGs", "description": "as §1, §2"}, "intestines [3]": {"test_system": "intestines", "test": "Enterocytic cellularity in intestines of treated mice (morphogenic effect)", "settings": "for Cellularity: 7 hours after treatment of mice, in comparison with control animals not treated with IEGs", "description": "as §1, §2"}, "intestines [4]": {"test_system": "intestines", "test": "Incorporation of H^3-thymidine (DNA synthesis) in intestines of treated mice", "settings": "for Incorporation H^3-thymidine: 7 hours after treatment of mice, in comparison with control animals not treated with IEGs", "description": "as §1, §2"}, "[5]": {"settings": "Middle section of the intestines"}}, "note": "Ends that are not written are not given here.", "data": [{"substance": "Arg-Arg-Asp-Asp-His-Arg-NH2 (RRDDHR-NH2) [IEG2, ID; NO]", "values": [{"measurement": "DNA concentration", "setting": "intestines [1]; Duodenum", "value": 68, "unit": "%"}, {"measurement": "DNA concentration", "setting": "intestines [1]; Ileum", "value": 77, "unit": "%"}, {"measurement": "DNA concentration", "setting": "intestines [1]; Jejunum", "value": 97, "unit": "%"}, {"measurement": "DNA concentration", "setting": "intestines [1]; [5]", "value": 62, "unit": "%"}, {"measurement": "Incorporation C^14-uridine", "setting": "intestines [2]; Duodenum", "value": 78, "unit": "%"}, {"measurement": "Incorporation C^14-uridine", "setting": "intestines [2]; Ileum", "value": 74, "unit": "%"}, {"measurement": "Incorporation C^14-uridine", "setting": "intestines [2]; Jejunum", "value": 78, "unit": "%"}, {"measurement": "Incorporation C^14-uridine", "setting": "intestines [2]; [5]", "value": 74, "unit": "%"}, {"measurement": "Cellularity", "setting": "intestines [3]; Duodenum", "value": 88, "unit": "%"}, {"measurement": "Cellularity", "setting": "intestines [3]; Ileum", "value": 85, "unit": "%"}, {"measurement": "Cellularity", "setting": "intestines [3]; Jejunum", "value": 75, "unit": "%"}, {"measurement": "Cellularity", "setting": "intestines [3]; [5]", "value": 83, "unit": "%"}, {"measurement": "Average reduction in enterocyte number", "setting": "intestines [3]; mice, 3 mg peptide content intraperitoneally, 7 hours", "value": 20, "unit": "%"}, {"measurement": "Incorporation H^3-thymidine", "setting": "intestines [4]; Duodenum", "value": 77, "unit": "%"}, {"measurement": "Incorporation H^3-thymidine", "setting": "intestines [4]; Ileum", "value": 55, "unit": "%"}, {"measurement": "Incorporation H^3-thymidine", "setting": "intestines [4]; Jejunum", "value": 88, "unit": "%"}, {"measurement": "Incorporation H^3-thymidine", "setting": "intestines [4]; [5]", "value": 48, "unit": "%"}, {"measurement": "suppressive effect on DNA synthesis", "setting": "intestines [4]; lower regions of intestines, mice, 3 mg intraperitoneally, 7 hours", "value": 48, "unit": "%"}]}]}
